What was measured:
male Wistar rats [1] = test: Treatment of rats with dimoxystrobin (iron concentration in the blood); format: in vivo, rat; settings: for average iron level in the blood: fourth group: 6-week old rats; for average iron level in the blood / blood level of iron: 500 ppm each day via the food; for blood level of iron: second group: 3-week old rats; for level of iron in the blood: sixth group: 3-week old rats, 250 ppm each day
Procedure: 10 g of the phenylacetic acid derivative dimoxystrobin were prepared by known methods and purified by conventional methods.
Both 3-week old and 6-week old male Wistar rats (see Example 1) were employed for the subsequent experiments. These rats were divided into 6 equally sized groups of 10 rats. The rats were housed under conventional conditions.
The first group consisted of 3-week old rats. They received only the regular food over the entire period of the experiment.
The second group likewise consisted of 3-week old rats. The animals received 500 ppm (milligrams of test substance per […]) of dimoxystrobin each day. It was supplied via the food.
The third group consisted of 6-week old rats which received no active ingredient via the food.
The fourth group consisted of 6-week old rats which received 500 ppm dimoxystrobin via the food each day.
The fifth group consisted of 3-week old rats which received no active ingredient.
The sixth group consisted of 3-week old rats which received 250 ppm of the test substance dimoxystrobin each day.
The iron concentrations in the blood were determined both after 2 days and after 7 days.

male Wistar rats [2] = test: Treatment of rats with an elevated iron level (iron level in the blood); format: in vivo, rat
Procedure: Two grams of the phenylacetic acid derivative orysastrobin were prepared by known methods and purified by conventional methods.
Six-week old male Wistar rats (Elévage Janvier, France) were employed for the experiments. These rats, which were housed under conventional conditions (20-24° C., 30-70% humidity, 12 hours illumination, standard food) were divided into five groups of equal size.
The first group was treated with no iron compound and no strobilurin derivative.
The second group was treated only with 200 mg of the phenylacetic acid derivative orysastrobin (as suspension by gavage).
The third group received a single intramuscular injection of 50 mg/kg of an iron(III) hydroxide-dextran complex (Myofer® 100), 1 ml of the injection solution comprising 320 mg of the complex (equivalent to 195 mg of Fe(OH)3).
The fourth group received both an injection of 50 mg/kg of the iron complex and, after 6 hours, a dose of 200 mg/kg of the strobilurin derivative by gavage.
The fifth group received both an injection of 50 mg/kg of the iron complex and, after 24 hours, a dose of 200 mg/kg of the strobilurin derivative by gavage.
24 hours before the start of the test, a blood sample was taken from all the rats, in each case at 8 o'clock in the morning of the preceding day, and was analyzed. The iron complex and/or the strobilurin derivative was administered at 8 o'clock in the morning of the day of the experiment. Further blood samples were taken from all the rats at 2 o'clock in the afternoon of the day of the experiment and at 8 o'clock in the morning of the next day, and were analyzed.

HFE mice = test: Treatment of HFE mice (serum iron level, model of hemochromatosis); format: in vivo, mouse; settings: for reduction of serum iron concentration compared with control group: 2000 ppm in the food, 7 days
Procedure: This genetic defect leads to HFE mice having an elevated iron level in the liver, and this can serve as model of hemochromatosis disorder in humans. The HFE mice employed in the experiments were 12 to 23 weeks old (obtained from University College London, Department of Biochemistry and Molecular Biology).
The housing conditions of the mice corresponded to typical standards as have also been described in Example 1. In the experiments, investigations were carried out both with male HFE mice and with female HFE mice. In each case one group of animals received over a period of 7 days 2000 ppm of the phenylacetic acid derivative orysastrobin each day. The product was supplied freely in the food. The comparison group received only the regular food.

Question: `CNC(=O)/C(=N/OC)c1ccccc1COc1cc(C)ccc1C` [dimoxystrobin, (E)-2(methoximino)-N-methyl-2-[α-(2,5-xylyloxy)-o-tolyl]acetamide] was tested. Which “average iron level in the blood” value (male Wistar rats [1]; after 2 days, control 43.1) did it give?
Answer: 34.2 µmol/L

Question: And the “average iron level in the blood” value (male Wistar rats [1]; after 7 days, control 44.0)?
Answer: 36 µmol/L

Question: And the “finding at the duodenum” value (male Wistar rats [1]; rats treated with dimoxystrobin, occurred only in the adult animals)?
Answer: distinct thickening of the duodenum

Question: What about the “blood level of iron” value (male Wistar rats [1]; after 2 days, control 92.6) of the same compound?
Answer: 35.8 µmol/L

Question: What about the “blood level of iron” value (male Wistar rats [1]; after 7 days) of the same compound?
Answer: 33.6 µmol/L

Question: And the “level of iron in the blood” value (male Wistar rats [1]; after 2 days, control 96.7)?
Answer: 56 µmol/L

Question: What about the “level of iron in the blood” value (male Wistar rats [1]; after 7 days, control 96.1) of the same compound?
Answer: 59.7 µmol/L

Question: What does the source list for `CNC(=O)/C(=N/OC)c1ccccc1CO/N=C(C)/C(=N/OC)C(/C)=N/OC` [orysastrobin, (2E)-2(methoximino)-2-[2-[(3E,5E,6E)-5-(methoximino)-4,6-dimethyl-2 , 8-dioxa-3,7-diazanona-3,6-dien-1-yl]phenyl]-N-methylacetamide]?
Answer: iron level in the blood (male Wistar rats [2]; fifth group: 50 mg/kg iron complex i.m. plus 200 mg/kg orysastrobin by gavage, after 24 hours, iron only 147.8): 91.9 µmol/L; iron level in the blood (male Wistar rats [2]; fourth group: 50 mg/kg iron complex i.m. plus 200 mg/kg orysastrobin by gavage, after 6 hours, iron only 153.9): 83.1 µmol/L; iron level in the blood (male Wistar rats [2]; second group: only 200 mg orysastrobin by gavage, no iron, 6 hours after administration, untreated control 47.8): 20.6 µmol/L; iron level in the blood (male Wistar rats [2]; second group: only 200 mg orysastrobin by gavage, no iron, after 24 hours, untreated control 47.8): 26.3 µmol/L; iron level (serum) (HFE mice; female HFE mice, 2000 ppm each day in the food, after one week, control 51.2): 36.66 µmol/L; reduction of serum iron concentration compared with control group (HFE mice; female HFE mice): about 28%; serum iron level (HFE mice; male HFE mice, 2000 ppm each day in the food, after one week, control 40.06): 30.62 µmol/L; reduction of serum iron concentration compared with control group (HFE mice; male HFE mice): about 24%

From patent publication US20100234366A1, “Use of Strobilurins for the Treatment of Disorders of Iron Metabolism” (BSF SE, priority 2006, published 2010)
